According to US20100119607A1, “BIOENHANCED COMPOSITIONS” (Rubicon Research Pvt. Ltd., priority 2005, published 2010):
≈ marks a conversion by molar mass, not a printed value. Counter-ions that a name gives are not always drawn. Like-named read-outs stand apart in the source and are kept apart here. Blank lines part the entries; values can stand above or below the molecule they belong to.

Columns and labels:
[1] = Solubility of candesartan cilexetil dispersions in 0.1N HCl; type: physicochemical; settings: simulated gastric fluid
[2] = Solubility of eprosartan mesylate solid dispersions in 0.1N HCl; type: physicochemical; settings: simulated gastric fluid, thermodynamic from solid
[3] = background statement in detailed description; cited from earlier work
[4] = 0.1N HCL with 0.5% SLS, USP Type II, 50 RPM

solubility [1]: 0.51 µg/mL (≈ 0.835 µM)
SMILES: CCOc1nc2cccc(C(=O)OC(C)OC(=O)OC3CCCCC3)c2n1Cc1ccc(-c2ccccc2-c2nnn[nH]2)cc1 (centres unmarked) [Candesartan cilexetil, candesartan cilexetil]

solubility [2]: 712 µg/mL
SMILES: CCCCc1ncc(/C=C(\Cc2cccs2)C(=O)O)n1Cc1ccc(C(=O)O)cc1 [Eprosartan mesylate, eprosartan mesylate]

% Cum. Dissolved ([4]; 0 minutes): 0%
% Cum. Dissolved ([4]; 5 minutes): 1.0%
% Cum. Dissolved ([4]; 10 minutes): 4.1%
% Cum. Dissolved ([4]; 15 minutes): 6.7%
% Cum. Dissolved ([4]; 30 minutes): 6.5%
% Cum. Dissolved ([4]; 60 minutes): 9.7%
% Cum. Dissolved ([4]; 120 minutes): 15.7%
% Cum. Dissolved ([4]; 120 minutes, listed as pure valsartan): 15%
SMILES: CCCCC(=O)N(Cc1ccc(-c2ccccc2-c2nnn[nH]2)cc1)[C@H](C(=O)O)C(C)C [Valsartan, valsartan]
bioavailability [3]: 10-25%
